Where two headings read alike, the source gives them in different places.
What was measured:
[1] = target: T1, human thyroid hormone receptors TRβ1 (Homo sapiens, UniProt P10828); experiment: Receptor binding to TRβ1 (gel filtration and scintillation proximity assay, labeled T3); conditions: read-out: Ki TRβ
T1 construct: made in house; host or cells: Sf9 insect cells (baculovirus)
T1 sequence (P10828 1-461): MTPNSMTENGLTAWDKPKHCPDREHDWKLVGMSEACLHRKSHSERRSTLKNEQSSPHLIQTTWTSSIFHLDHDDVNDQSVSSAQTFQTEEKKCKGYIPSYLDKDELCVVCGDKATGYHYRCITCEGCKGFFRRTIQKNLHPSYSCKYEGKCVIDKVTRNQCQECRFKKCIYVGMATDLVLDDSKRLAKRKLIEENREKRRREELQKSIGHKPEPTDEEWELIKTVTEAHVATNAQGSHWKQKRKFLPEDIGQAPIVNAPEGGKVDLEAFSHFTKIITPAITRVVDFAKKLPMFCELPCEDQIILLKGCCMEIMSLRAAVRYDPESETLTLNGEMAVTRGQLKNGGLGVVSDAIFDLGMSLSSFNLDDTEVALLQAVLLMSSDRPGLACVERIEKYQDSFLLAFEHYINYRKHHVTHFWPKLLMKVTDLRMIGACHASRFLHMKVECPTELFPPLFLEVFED
T1 sequence (P19793 1-462 partner): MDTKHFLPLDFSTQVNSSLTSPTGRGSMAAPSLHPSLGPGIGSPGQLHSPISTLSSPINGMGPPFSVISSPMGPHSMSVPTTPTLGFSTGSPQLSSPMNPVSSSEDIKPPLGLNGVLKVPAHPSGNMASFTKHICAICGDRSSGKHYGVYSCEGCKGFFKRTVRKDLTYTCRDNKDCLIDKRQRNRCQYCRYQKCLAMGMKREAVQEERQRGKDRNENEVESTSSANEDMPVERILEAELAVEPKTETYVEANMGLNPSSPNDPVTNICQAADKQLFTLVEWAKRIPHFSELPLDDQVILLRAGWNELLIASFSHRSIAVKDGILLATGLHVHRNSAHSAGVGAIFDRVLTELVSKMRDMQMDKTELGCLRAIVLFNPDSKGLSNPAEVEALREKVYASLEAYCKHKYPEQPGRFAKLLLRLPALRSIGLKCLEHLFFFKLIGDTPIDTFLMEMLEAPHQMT
Description: (§1) Methods: Baculoviruses expressing TRα1, TRβ1 and RXRα were generated using cDNA and other reagents from Invitrogen (Carlsbad, Calif.). To produce TR/RXR heterodimer proteins, the sf9 insect cells were first grown to a density of 1-5×10^5 cells/mL. […] and RXRα baculovirus stocks were added to the cell culture with a ratio of 1 to 1 (multiplicity of infection=10). The cells were harvested three days after the infection.
(§2) Binding of compounds to either the TRα1 or TRβ1 were also performed by means of scintillation proximity assays (SPA). The SPA assay, a common method used for the quantitation of receptor-ligand equilibria, makes use of special beads coated with a scintillant and a capture molecule, copper, which binds to the histidine-tagged α or β receptor.

[2] = target: T2, human thyroid hormone receptors TRα1 (Homo sapiens, UniProt P10827); experiment: Receptor binding to TRα1 (gel filtration and scintillation proximity assay, labeled T3); conditions: read-out: Ki TRα
T2 construct: made in house; host or cells: Sf9 insect cells (baculovirus)
T2 sequence (P10827 1-410 isoform P10827-2): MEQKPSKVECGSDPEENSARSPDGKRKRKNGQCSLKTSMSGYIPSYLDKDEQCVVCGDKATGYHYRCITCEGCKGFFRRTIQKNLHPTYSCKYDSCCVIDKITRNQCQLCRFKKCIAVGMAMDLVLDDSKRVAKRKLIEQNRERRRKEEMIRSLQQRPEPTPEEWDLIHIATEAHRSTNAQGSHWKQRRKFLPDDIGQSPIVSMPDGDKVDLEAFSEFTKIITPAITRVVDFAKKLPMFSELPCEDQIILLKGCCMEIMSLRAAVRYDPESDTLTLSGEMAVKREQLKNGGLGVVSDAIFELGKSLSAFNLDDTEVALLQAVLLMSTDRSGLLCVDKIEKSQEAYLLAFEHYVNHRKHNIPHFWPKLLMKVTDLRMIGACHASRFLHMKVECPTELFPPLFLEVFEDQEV
T2 sequence (P19793 1-462 partner): T1 sequence (P19793 1-462 partner)
Description: as §1, §2

[3] = system: plasma cholesterol; experiment: Cholesterol lowering in hypercholesterolemic rats; format: in vivo; conditions: for change in vivo at 0.2 mg/kg/day / change in vivo at 0.5 mg/kg/day: Rattus norvegicus, read-out: % Cholesterol Lowering
[4] = ip, delivered i.p (0.2 mg/kg/d), percentage change from pre-dose cholesterol
[5] = po, delivered p.o. (0.2 mg/kg/d), percentage change from pre-dose cholesterol

Row | Compound | Ki ([1]; SPA data) [nM] | Ki ([2]; SPA data) [nM] | change in vivo at 0.2 mg/kg/day [3, 4] [%] | change in vivo at 0.2 mg/kg/day [3, 5] [%] | other results
1 | Cc1cc(/C=C/P(=O)(O)O)cc(C)c1Oc1ccc(O)c(C(C)C)c1 [Compound 28, trans-2-[3,5-dimethyl-4-(4′-hydroxy-3′-iso-propylphenoxy)phenyl]vinylphosphonic acid] | 14 | 375 | -20.5 |  | 
2 | CC(C)c1cc(Oc2c(I)cc(OCP(=O)(O)O)cc2I)ccc1O [Compound 8, [3,5-diiodo-4-(4′-hydroxy-3′-iso-propylphenoxy)phenoxy]methylphosphonic acid] |  |  | -24.3 | -20.6 | Ki [1]: 0.97 nM; Ki [2]: 3.74 nM
3 | CCC(CC)c1cc(Cc2c(C)cc(OCP(=O)(O)O)cc2C)ccc1O [Compound 7-9, [3,5-dimethyl-4-[3′-(1-ethylpropyl)-4′-hydroxybenzyl]phenoxy]methylphosphonic acid] | 5.4 | 110 | -63.2 | -38.4 | 
4 | Cc1cc(S(=O)(=O)CP(=O)(O)O)cc(C)c1Cc1ccc(O)c(C(C)C)c1 [Compound 52, [3,5-dimethyl-4-(4′-Hydroxy-3′-iso-propylbenzyl)benzenesulfonyl]methylphosphonic acid] | 48 | > 2000 | -18.8 |  | 
5 | Cc1cc(OCP(=O)(O)O)cc(C)c1Cc1ccc(O)c(C(=O)NCCc2ccccc2)c1 [Compound 37, [3,5-dimethyl-4-(4′-hydroxy-3′-phenethylcarbamoylbenzyl)phenoxy]methylphosphonic acid] | 23 | 294 | -0.4 |  | 
6 | Cc1cc(CCCP(=O)(O)O)cc(C)c1Oc1ccc(O)c(C(C)C)c1 [Compound 29, 3-[3,5-dimethyl-4-(4′-hydroxy-3′-iso-propylphenoxy)phenyl]propylphosphonic acid] | 47 | 661 | -21.9 |  | 
7 | CC(C)c1cc(Oc2c(Br)cc(OCP(=O)(O)O)cc2Br)ccc1O [Compound 8-1, [3,5-dibromo-4-(3′-iso-propyl-4′-hydroxyphenoxy)phenoxy]methylphosphonic acid] |  |  |  | -32.2 | Ki [1]: 2.51 nM; Ki [2]: 18.6 nM
8 | CC(C)c1cc(Oc2c(Cl)cc(OCP(=O)(O)O)cc2Cl)ccc1O [Compound 8-2, [3,5-dichloro-4-(3′-iso-propyl-4′-hydroxyphenoxy)phenoxy]methylphosphonic acid] | 20 | 114 | -48 |  | 
9 | CCC(C)c1cc(Cc2c(C)cc(CCP(=O)(O)O)cc2C)ccc1O (centres unmarked) [Compound 24-3, 2-[4-(3′-sec-butyl-4′-hydroxy-benzyl)-3,5-dimethyl-phenyl]-ethylphosphonic acid] | 2.87 | 113 | -48.6 |  | 
10 | Cc1cc(OCP(=O)(O)O)c(C)c(C)c1Cc1ccc(O)c(C(C)C)c1 [Compound 61, [4-(4′-hydroxy-3′-isopropylbenzyl)-2,3,5-trimethylphenoxymethyl]phosphonic acid] | 1.4 | 42.7 |  | -33.7 | 
11 | [3,5-dimethyl-4-(4′-Hydroxy-3′-iso-propyl-phenyl)methoxymethyl]phenoxy]methylphosphonic acid [Compound 33] | 16.7 | 267 |  |  | % Cholesterol Lowering ([3]; delivered i.p (0.2 mg/kg/d), percentage change from pre-dose cholesterol): −32.5%
12 | Cc1cc(CCP(=O)(O)O)cc(C)c1Cc1ccc(O)c(Cc2ccccc2)c1 [Compound 42, 2-[3,5-dimethyl-4-[3′-benzyl-4′-hydroxy-benzyl]phenyl]-ethylphosphonic acid] | 16.2 | 794 | -28.8 |  | 
13 | Cc1cc(OCP(=O)(O)O)cc(C)c1Cc1ccc(O)c(Cc2ccccc2)c1 [Compound 38, [4-(3′-benzyl-4′-hydroxy-benzyl)-3,5-dimethylphenoxy]methylphosphonic acid] | 5.4 | 254 | -21.7 |  | 
14 | CCC(C)c1cc(Cc2c(C)cc(OCP(=O)(O)O)cc2C)ccc1O (centres unmarked) [Compound 7-3, [3,5-dimethyl-4-(3′-sec-butyl-4′-hydroxybenzyl)phenoxy]methylphosphonic acid] | 6.6 | 31 | -45.4 | -36.5 | 
15 | Cc1cc(/C=C/P(=O)(O)O)cc(C)c1Cc1ccc(O)c(C(C)C)c1 [Compound 24-2, trans-2-[3,5-dimethyl-4-(4′-hydroxy-3′-iso-propylbenzyl)phenyl]vinylphosphonic acid] | 24 | > 2000 | -20.5 |  | 
16 | Cc1cc(Cc2c(C)cc(OCP(=O)(O)O)cc2C)cc(C(C)C)c1O [Compound 7-10, [3,5-dimethyl-4-(4′-hydroxy-3′-iso-propyl-5′-methyl benzyl)phenoxy]methylphosphonic Acid] | 48 | 112 | -25.8 |  | 
17 | CC(C)c1cc(Oc2c(Br)cc(CP(C)(=O)O)cc2Br)ccc1O [Compound 71, [3,5-Dibromo-4-(4′-hydroxy-3′-isopropylphenoxy)benzyl]methylphosphinic Acid] | 0.4 | 4 |  | -54.4 | 
18 | Cc1cc(OCP(=O)(O)O)cc(C)c1Cc1ccc(O)c(-c2ccccc2)c1 [Compound 7-1, [3,5-dimethyl-4-(4′-hydroxy-3′-phenylbenzyl)phenoxy]methylphosphonic acid] | 106 |  |  | -12.2 | Ki [2]: 1170 nM
19 | Cc1cc(CCP(=O)(O)O)cc(C)c1Cc1ccc(O)c(C(C)C)c1 [Compound 24-1, 2-[3,5-dimethyl-4-(4′-hydroxy-3′-iso-propylbenzyl)phenyl]ethylphosphonic acid] |  |  | -35.4 |  | Ki [1]: 31 nM
20 | CC(C)c1cc(Oc2c(Br)cc(NCP(=O)(O)O)cc2Br)ccc1O [Compound 22-1, [3,5-dibromo-4-(4′-hydroxy-3′-iso-propylphenoxy)phenylamino]methylphosphonic acid] |  |  |  | -19.9 | Ki [1]: 1.5 nM
21 | CCC(C)c1cc(Cc2c(C)cc(OCP(=O)(OCOC(=O)C(C)(C)C)OCOC(=O)C(C)(C)C)cc2C)ccc1O (centres unmarked) [Compound 12-4, Di-(pivaloyloxymethyl)[3,5-dimethyl-4-(4′-hydroxy-3′-sec-butylbenzyl)phenoxy]methylphosphonate] |  |  |  |  | change in vivo at 0.5 mg/kg/day ([3]; po, delivered p.o. (0.5 mg/kg/d), percentage change from pre-dose cholesterol): -30.5%
22 | CCOC(=O)[C@H](C)NP(=O)(COc1cc(Cl)c(Cc2ccc(O)c(C(C)C)c2)c(Cl)c1)N[C@@H](C)C(=O)OCC [Compound 15-7] |  |  |  |  | % Cholesterol Lowering ([3]; delivered p.o. (0.5 mg/kg/d), percentage change from pre-dose cholesterol): −29.1%
23 | CCOP(=O)(Cc1cc(Br)c(Oc2ccc(O)c(C(C)C)c2)c(Br)c1)OCC [Compound 19-1, diethyl[3,5-dibromo-4-(4′-hydroxy-3′-iso-propylphenoxy)]benzylphosphonate] |  |  |  |  | change in vivo at 0.5 mg/kg/day ([3]; po): -6.6%; cholesterol lowering ([3]; hypercholesterolemic rats, 0.5 mg/kg/d orally): failed to demonstrate cholesterol lowering
